Measured values taken from ChEMBL document CHEMBL3407382, “Syntheses of chondroitin sulfate tetrasaccharide structures containing 4,6-disulfate patterns and analysis of their interaction with glycosaminoglycan-binding protein” (Bioorg Med Chem Lett, 2015).

biological target: Fibroblast growth factor 2 (Homo sapiens, UniProt P09038); assay: Binding affinity to FGF2 (unknown origin) assessed as change in luminance intensity at 25 degC by SPR imaging sensor method; conditions: not given
Sequence (P09038 143-288 limits assumed): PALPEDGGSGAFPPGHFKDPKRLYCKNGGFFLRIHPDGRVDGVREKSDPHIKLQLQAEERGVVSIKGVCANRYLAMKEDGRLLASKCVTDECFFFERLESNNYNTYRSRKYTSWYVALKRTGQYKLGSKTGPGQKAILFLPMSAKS

| Kd | SMILES |
| --- | --- |
| Not Active | CC(=O)N[C@H]1[C@H](OC[C@@H](O)[C@@H](O)[C@H](O)[C@@H](O)CNc2cccc(NC(=O)CCCCC3CCSS3)c2)O[C@H](COS(=O)(=O)[O-])[C@H](OS(=O)(=O)[O-])[C@@H]1O[C@@H]1O[C@H](C(=O)O)[C@@H](O[C@@H]2O[C@H](COS(=O)(=O)[O-])[C@H](O)[C@H](O[C@@H]3O[C@H](C(=O)O)[C@@H](O)[C@H](O)[C@H]3O)[C@H]2NC(C)=O)[C@H](O)[C@H]1O.[Na+].[Na+].[Na+] (stereo partly drawn) |
| Not Active | CC(=O)N[C@H]1[C@H](O[C@H]2[C@H](O)[C@@H](OS(=O)(=O)O)[C@H](O[C@H]3[C@@H](O)[C@@H](COS(=O)(=O)O)O[C@@H](OC[C@@H](O)[C@@H](O)[C@H](O)[C@@H](O)CNc4cccc(NC(=O)CCCCC5CCSS5)c4)[C@@H]3NC(C)=O)O[C@@H]2C(=O)O)O[C@H](COS(=O)(=O)O)[C@H](O)[C@@H]1O[C@@H]1O[C@H](C(=O)O)[C@@H](O)[C@H](O)[C@H]1O (stereo partly drawn) |

same assay, conditions: read-out: Kd

| SMILES | Kd [nM] |
| --- | --- |
| CC(=O)N[C@H]1[C@H](O[C@H]2[C@H](O)[C@@H](O)[C@H](O[C@H]3[C@@H](O)[C@@H](COS(=O)(=O)O)O[C@@H](OC[C@@H](O)[C@@H](O)[C@H](O)[C@@H](O)CNc4cccc(NC(=O)CCCCC5CCSS5)c4)[C@@H]3NC(C)=O)O[C@@H]2C(=O)O)O[C@H](COS(=O)(=O)O)[C@H](OS(=O)(=O)O)[C@@H]1O[C@@H]1O[C@H](C(=O)O)[C@@H](O)[C@H](O)[C@H]1O (stereo partly drawn) | 8.2 |
| CC(=O)N[C@H]1[C@H](O[C@H]2[C@H](O)[C@@H](O)[C@H](O[C@@H]3[C@@H](NC(C)=O)[C@H](OC[C@@H](O)[C@@H](O)[C@H](O)[C@@H](O)CNc4cccc(NC(=O)CCCCC5CCSS5)c4)O[C@H](COS(=O)(=O)O)[C@@H]3OS(=O)(=O)O)O[C@@H]2C(=O)O)O[C@H](COS(=O)(=O)O)[C@H](OS(=O)(=O)O)[C@@H]1O[C@@H]1O[C@H](C(=O)O)[C@@H](O)[C@H](O)[C@H]1O (stereo partly drawn) | 5.2 |

The next lines start with the values.

| Kd [nM] | SMILES |
| --- | --- |
| 16 | CC(=O)N[C@H]1[C@H](OCC(O)C(O)C(O)C(O)CNc2cccc(NC(=O)CCCCC3CCSS3)c2)O[C@H](COS(=O)(=O)O)[C@H](OS(=O)(=O)O)[C@@H]1O[C@@H]1O[C@H](C(=O)O)[C@@H](O[C@@H]2O[C@H](COS(=O)(=O)O)[C@H](O)[C@H](O[C@@H]3O[C@H](C(=O)O)[C@@H](O)[C@H](O)[C@H]3OS(=O)(=O)O)[C@H]2NC(C)=O)[C@H](O)[C@H]1OS(=O)(=O)O (stereo partly drawn) |
| 5.6 | CC(=O)N[C@H]1[C@H](O[C@H]2[C@H](O)[C@@H](O)[C@H](O[C@@H]3[C@@H](NC(C)=O)[C@H](OC[C@@H](O)[C@@H](O)[C@H](O)[C@@H](O)CNc4cccc(NC(=O)CCCCC5CCSS5)c4)O[C@H](CO)[C@@H]3OS(=O)(=O)O)O[C@@H]2C(=O)O)O[C@H](COS(=O)(=O)O)[C@H](OS(=O)(=O)O)[C@@H]1O[C@@H]1O[C@H](C(=O)O)[C@@H](O)[C@H](O)[C@H]1O (stereo partly drawn) |
| 48 | CC(=O)N[C@H]1[C@H](OC[C@@H](O)[C@@H](O)[C@H](O)[C@@H](O)CNc2cccc(NC(=O)CCCCC3CCSS3)c2)O[C@H](COS(=O)(=O)O)[C@H](O)[C@@H]1O[C@@H]1O[C@H](C(=O)O)[C@@H](O[C@@H]2O[C@H](COS(=O)(=O)O)[C@H](O)[C@H](O[C@@H]3O[C@H](C(=O)O)[C@@H](O)[C@H](O)[C@H]3OS(=O)(=O)O)[C@H]2NC(C)=O)[C@H](O)[C@H]1OS(=O)(=O)O (stereo partly drawn) |
| 4.7 | CC(=O)N[C@H]1[C@H](O[C@H]2[C@H](O)[C@@H](OS(=O)(=O)O)[C@H](O[C@H]3[C@@H](O)[C@@H](COS(=O)(=O)O)O[C@@H](OC[C@@H](O)[C@@H](O)[C@H](O)[C@@H](O)CNc4cccc(NC(=O)CCCCC5CCSS5)c4)[C@@H]3NC(C)=O)O[C@@H]2C(=O)O)O[C@H](COS(=O)(=O)O)[C@H](OS(=O)(=O)O)[C@@H]1O[C@@H]1O[C@H](C(=O)O)[C@@H](O)[C@H](O)[C@H]1O (stereo partly drawn) |
